Test results published in patent US20250059174A1, “Pharmaceutical Compounds and Compositions as C-Kit Kinase Inhibitors” (Enanta Pharmaceuticals, Inc., priority 2023, published 2025).

What was measured:
[1] = biological target: Recombinant human c-KIT kinase (Homo sapiens (Human), UniProt P10721); assay: c-KIT kinase chemiluminescence assay (ADP-Glo); type: biochemical; details: ATP 50 μM
Summary of the method: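 Recombinant human c-KIT preincubated 30 min at RT in 40 mM Tris pH 7.5, 20 mM MgCl2, 0.1 mg/mL BSA, 50 μM DTT, then reacted 2 h at RT with ATP and polyEY substrate. ADP-Glo luminescence readout; activity normalized to high/low controls, IC50 and Hill coefficient from inhibitor-versus-normalized-response fit.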

M-07e cells = assay: M-07e cellular assay (SCF-mediated cell proliferation); type: cell-based; details: Homo sapiens, 72 hours, CellTiter Glo
Summary of the method: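 Readout came from CellTiter Glo after 72 h of compound treatment in SCF (EC90)-stimulated, pre-starved M-07e cells at 37 °C.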

Sequence of Recombinant human c-KIT kinase (P10721 26-976): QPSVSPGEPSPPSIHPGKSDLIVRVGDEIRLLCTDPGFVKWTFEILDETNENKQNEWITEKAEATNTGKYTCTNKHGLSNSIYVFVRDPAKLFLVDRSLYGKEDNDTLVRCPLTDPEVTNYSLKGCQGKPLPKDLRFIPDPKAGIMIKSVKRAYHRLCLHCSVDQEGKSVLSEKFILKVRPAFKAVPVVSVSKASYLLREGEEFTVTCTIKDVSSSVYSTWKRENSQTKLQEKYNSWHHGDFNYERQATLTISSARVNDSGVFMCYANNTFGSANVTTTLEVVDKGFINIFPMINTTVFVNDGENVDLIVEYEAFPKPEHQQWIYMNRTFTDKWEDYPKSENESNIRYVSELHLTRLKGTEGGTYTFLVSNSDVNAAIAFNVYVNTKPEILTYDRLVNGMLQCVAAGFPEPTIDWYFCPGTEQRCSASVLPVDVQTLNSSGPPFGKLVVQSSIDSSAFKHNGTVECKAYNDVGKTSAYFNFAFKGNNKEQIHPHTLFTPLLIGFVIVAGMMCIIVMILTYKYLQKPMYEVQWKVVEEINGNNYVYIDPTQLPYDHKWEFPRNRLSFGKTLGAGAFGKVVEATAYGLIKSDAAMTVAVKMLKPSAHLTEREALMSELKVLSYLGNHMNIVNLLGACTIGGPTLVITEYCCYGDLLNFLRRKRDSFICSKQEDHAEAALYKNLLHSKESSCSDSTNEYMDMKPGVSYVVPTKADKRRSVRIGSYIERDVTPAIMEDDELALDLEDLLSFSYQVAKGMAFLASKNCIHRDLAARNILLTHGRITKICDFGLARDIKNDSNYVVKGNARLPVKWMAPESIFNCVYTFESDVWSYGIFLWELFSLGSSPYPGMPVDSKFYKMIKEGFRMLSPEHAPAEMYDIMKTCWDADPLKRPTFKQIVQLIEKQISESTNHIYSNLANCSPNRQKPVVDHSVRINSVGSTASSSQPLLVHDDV

Row | SMILES | IC50 [1] [nM] | EC50 (M-07e cells) [nM]
1 | Cc1ccc(-c2noc(C3CCN(C(=O)[C@H]4C[C@@H]4F)CC3)n2)cc1NC(=O)c1cnn2ccc(N3CC4(COC4)C3)cc12 [Example 281-93] | 100 to 1000 | 100 to 1000
2 | Cc1ccc(-c2noc([C@H]3C[C@@H](C(F)(F)F)C3)n2)cc1NC(=O)c1cnc(-c2ccc3c(c2)CC(=O)N3)o1 [Example 308-2] | < 100 | < 100
3 | Cc1sc(-c2noc(C3CN(C(=O)C4(F)CC4)C3)n2)cc1NC(=O)c1cnn2ccc(N3CC4(COC4)C3)cc12 [Example 281-128] | 100 to 1000 | 100 to 1000
4 | Cc1ccc(-c2noc([C@H]3C[C@@H]3F)n2)cc1NC(=O)c1coc2ccccc12 [Example 39] | > 1000 | > 1000
5 | Cc1ccc(-c2noc([C@H]3C[C@@H]3F)n2)cc1NC(=O)c1cnn2cc(Br)ccc12 [Example 41, 6-bromo-N-(5-(5-((1R,2S)-2-fluorocyclopropyl)-1,2,4-oxadiazol-3-yl)-2-methylphenyl)pyrazolo [1,5-a]pyridine-3-carboxamide] | < 100 | 100 to 1000
6 | Cc1ccc(-c2noc([C@H]3C[C@@H]3F)n2)cc1NC(=O)c1cnn2ccc(-c3cncnc3)cc12 [Example 154] | < 100 | < 100
7 | Cc1cc(F)c(-c2noc([C@H]3C[C@@H]3C(F)F)n2)cc1NC(=O)c1cnn2ccc(N3CC4(COC4)C3)cc12 [Example 281-59] | < 100 | 100 to 1000
8 | Cc1ccc(-c2noc(C3CN(C(=O)C4(F)CC4)C3)n2)cc1NC(=O)c1cnn2ccc(N3CC4(C3)CC(O)(C(F)F)C4)cc12 [Example 281-35] | < 100 | < 100
9 | Cc1ccc(-c2noc([C@H]3C[C@@H]3F)n2)cc1NC(=O)c1cnn2cc(-c3cn(C(F)(F)F)nn3)ccc12 [Example 113] | < 100 | < 100
10 | Cc1ncc(-c2noc([C@H]3C[C@](O)(C(F)F)C3)n2)cc1NC(=O)c1cnn2ccc(N3CC4(C3)CC(O)(C(F)F)C4)cc12 [Example 281-37] | 100 to 1000 | 100 to 1000
11 | Cc1ccc(-c2noc([C@H]3C[C@@H]3F)n2)cc1NC(=O)c1cnn2cc(F)c(N3CC4(COC4)C3)cc12 [Example 206] | 100 to 1000 | 100 to 1000
12 | Cc1ccc(-c2noc([C@H]3C[C@@H]3F)n2)cc1NC(=O)c1cnn2ccc(C#N)cc12 [Example 127] | 100 to 1000 | 100 to 1000
13 | Cc1ccc(-c2noc([C@H]3C[C@@H]3F)n2)cc1NC(=O)c1cnc(-c2ccc3nccn3c2)o1 [Example 308-18] | 100 to 1000 | 100 to 1000
14 | Cc1ncc(-c2noc([C@H]3CN(C(=O)C4(F)CC4)[C@@H]3C)n2)cc1NC(=O)c1cnn2ccc(N3CC4(C3)CC(O)(C(F)F)C4)cc12 [Example 281-15] | 100 to 1000 | 100 to 1000
15 | Cc1ccc(-c2noc([C@H]3C[C@@H]3F)n2)cc1NC(=O)c1cnn2ccc(N3CC[C@H]3C(=O)OC(C)(C)C)cc12 [Example 209] | 100 to 1000 | 100 to 1000
16 | Cc1ccc(-c2noc([C@@H]3C[C@H]3C(F)F)n2)cc1NC(=O)c1cnn2ccc(N3CC4(COC4)C3)cc12 [Example 281-1] | < 100 | < 100
17 | Cc1ccc(-c2noc([C@H]3C[C@@H]3F)n2)cc1NC(=O)c1cnn2ccc(-n3cc(N)cn3)cc12 [Example 237] | < 100 | 100 to 1000
18 | Cc1ccc(-c2noc([C@H]3C[C@@H]3F)n2)cc1NC(=O)c1cnn2ccc(Nc3cn[nH]c3)cc12 [Example 238] | < 100 | < 100
19 | Cc1ccc(-c2noc([C@H]3C[C@@H]3F)n2)cc1NC(=O)c1cnn2cc(-c3cnnn3CCO)ccc12 [Example 120] | 100 to 1000 | 100 to 1000
20 | Cc1ccc(-c2noc([C@H]3C[C@@H]3F)n2)cc1NC(=O)c1cnn2ccc(N3CC4(COC(C)(C)OC4)C3)cc12 [Example 241-2] | < 100 | > 1000
21 | Cc1ccc(-c2noc([C@H]3C[C@@H]3F)n2)cc1NC(=O)c1cnn2cc(-c3cn(CC(C)(C)O)nn3)ccc12 [Example 118] | < 100 | < 100
22 | O=C(Nc1cc(-c2noc([C@H]3C[C@@H]3F)n2)ccc1C(F)F)c1cnn2ccc(N3CC4(C3)CC(O)(C(F)F)C4)cc12 [Example 281-118] | 100 to 1000 | < 100

Row | SMILES | IC50 [1] [nM] | EC50 (M-07e cells) [nM]
23 | Cc1ccc(-c2noc([C@H]3C[C@@H](OC(F)(F)F)C3)n2)cc1NC(=O)c1cnn2cc(-c3cn(C(F)F)nn3)ccc12 [Example 263] | < 100 | < 100
24 | COC1CC2(C1)CN(c1ccn3ncc(C(=O)Nc4cc(-c5noc([C@H]6C[C@@H]6F)n5)ccc4C)c3c1)C2 [Example 186] | < 100 | < 100
25 | Cc1ncc(-c2noc(C3(F)CN(CC(F)F)C3)n2)cc1NC(=O)c1cnn2ccc(N3CC4(C3)CC(O)(C(F)F)C4)cc12 [Example 281-105] | 100 to 1000 | 100 to 1000
26 | Cc1ccc(-c2noc(C3CC4(C3)CN(C(=O)[C@H]3C[C@@H]3F)C4)n2)cc1NC(=O)c1cnn2ccc(N3CC4(C3)CC(O)(C(F)F)C4)cc12 [Example 281-107] | 100 to 1000 | 100 to 1000
27 | Cc1cc(F)c(-c2noc([C@H]3C[C@@H]3F)n2)cc1NC(=O)c1cnn2ccc(N3CC4(C3)CC(O)(C(F)F)C4)cc12 [Example 281-18] | < 100 | < 100
28 | Cc1ccc(-c2noc([C@H]3C[C@@H]3F)n2)cc1NC(=O)c1cnn2ccc(NCC3(C(=O)OC(C)(C)C)COC3)cc12 [Example 241-9] | 100 to 1000 | 100 to 1000
29 | Cc1ccc(-c2noc([C@H]3C[C@@H](OC(F)F)C3(C)C)n2)cc1NC(=O)c1cnn2ccc(N3CC4(CCN(CC(F)F)C4)C3)cc12 [Example 255] | < 100 | 100 to 1000
30 | Cc1ccc(-c2ncc(C3CC3)cn2)cc1NC(=O)c1cnn2ccc(-c3c(C)nc(N)nc3C)cc12 [Example 365] | 100 to 1000 | < 100
31 | Cc1ccc(-c2noc([C@H]3C[C@@H](OC(F)(F)F)C3)n2)cc1NC(=O)c1cnn2ccc(N3CC4(C3)CC(O)(C(F)(F)F)C4)cc12 [Example 281-23] | < 100 | < 100
32 | Cc1ncc(-c2nnn(C3CNC3)n2)cc1NC(=O)c1cnn2ccc(N3CC4(C3)CC(O)(C(F)F)C4)cc12 [Example 312-8] | > 1000 | > 1000
33 | Cc1ccc(-c2noc([C@H]3C[C@@H]3F)n2)cc1NC(=O)c1cnn2ccc(N3CC4(C3)CC(O)(C(F)F)C4)cc12 [Example 232] | < 100 | < 100
34 | Cc1ccc(-c2noc([C@H]3C[C@@H]3F)n2)cc1NC(=O)c1cnn2ccc(N3CC4(CC(=O)C4)C3)cc12 [Example 231] | < 100 | < 100
35 | Cc1ccc(-c2noc([C@H]3C[C@@H]3F)n2)cc1NC(=O)c1cnn2ccc(N3CC4CC(C3)O4)cc12 [Example 194] | < 100 | < 100
36 | Cc1ncc(-c2noc([C@H]3C[C@@H]3F)n2)cc1NC(=O)c1cnn2cc(-c3cn(C(F)F)nn3)ccc12 [Example 132-5] | 100 to 1000 | < 100
37 | Cc1ccc(-c2nc3n(n2)CCN(C(=O)OC(C)(C)C)C3)cc1NC(=O)c1cnn2ccc(N3CC4(C3)CC(O)(C(F)F)C4)cc12 [Example 322] | < 100 | 100 to 1000
38 | Cc1ccc(-c2noc([C@H]3C[C@@H]3F)n2)cc1NC(=O)c1cnn2ccc(N3CC4(C3)CC(F)(F)C4)cc12 [Example 213] | < 100 | < 100
39 | Cc1ncc(-c2ncc(C(F)F)cn2)cc1NC(=O)c1cnn2ccc(N3CC4(C3)CC(O)(C(F)F)C4)cc12 [Example 327] | 100 to 1000 | 100 to 1000
40 | COC(=O)N1C[C@H](c2nc(-c3cnc(C)c(NC(=O)c4cnn5ccc(N6CC7(C6)CC(O)(C(F)F)C7)cc45)c3)no2)[C@H]1C [Example 281-14] | 100 to 1000 | 100 to 1000
41 | O=C(Nc1cc(-c2noc(N3CC(O)(C(F)(F)F)C3)n2)ccc1Cl)c1cnn2ccc(N3CC4(C3)CC(O)(C(F)F)C4)cc12 [Example 281-125] | < 100 | < 100
42 | Cc1ccc(-c2noc([C@H]3C[C@@H]3F)n2)cc1NC(=O)c1cnc2n1C(Cc1ccccc1)c1ccccc1-2 (stereo partly shown) [Example 104] | > 1000 | > 1000
43 | Cc1ccc(-c2noc(C3CN(C(=O)N(C)C)C3)n2)cc1NC(=O)c1cnn2ccc(N3CC4(COC4)C3)cc12 [Example 281-51] | > 1000 | > 1000
44 | Cc1ncc(-c2noc([C@@H]3CN(C(=O)C4(F)CC4)[C@H]3C)n2)cc1NC(=O)c1cnn2ccc(N3CC4(C3)CC(O)(C(F)F)C4)cc12 [Example 281-11] | 100 to 1000 | 100 to 1000
